Experimental data published in ChEMBL document CHEMBL5154776, “Discovery of Potent and Orally Bioavailable Platelet-Derived Growth Factor Receptor (PDGFR) Inhibitors for the Treatment of Osteosarcoma” (J Med Chem, 2022).
Activity calls are given as the source filed them.

What was measured:
HOS-TE85 [1] = test: Induction of cell cycle arrest in human MNNG/HOS cells assessed as accumulation of cells at G2/M phase incubated for 48 hrs by propidium iodide staining based flow cytometry analysis; type: functional; conditions: dose 0.1-0.4 µM, DDE = dose-dependent effect
MG-63 [2] = test: Induction of DNA damage in human MG-63 cells assessed as tail DNA at 0.1 to 0.4 uM measured after 48 hrs by comet assay; type: functional, cell-based; conditions: dose 0.1-0.4 µM
[3] = target: T1, Platelet-derived growth factor receptor beta (Homo sapiens, UniProt P09619); test: Inhibition of PDGFRbeta-mediated downstream signalling in human MG-63 cells assessed as suppression of ERK phosphorylation at 0.1 uM measured after 48 hrs by western blot analysis; type: cell-based
T1 sequence (P09619 whole entry): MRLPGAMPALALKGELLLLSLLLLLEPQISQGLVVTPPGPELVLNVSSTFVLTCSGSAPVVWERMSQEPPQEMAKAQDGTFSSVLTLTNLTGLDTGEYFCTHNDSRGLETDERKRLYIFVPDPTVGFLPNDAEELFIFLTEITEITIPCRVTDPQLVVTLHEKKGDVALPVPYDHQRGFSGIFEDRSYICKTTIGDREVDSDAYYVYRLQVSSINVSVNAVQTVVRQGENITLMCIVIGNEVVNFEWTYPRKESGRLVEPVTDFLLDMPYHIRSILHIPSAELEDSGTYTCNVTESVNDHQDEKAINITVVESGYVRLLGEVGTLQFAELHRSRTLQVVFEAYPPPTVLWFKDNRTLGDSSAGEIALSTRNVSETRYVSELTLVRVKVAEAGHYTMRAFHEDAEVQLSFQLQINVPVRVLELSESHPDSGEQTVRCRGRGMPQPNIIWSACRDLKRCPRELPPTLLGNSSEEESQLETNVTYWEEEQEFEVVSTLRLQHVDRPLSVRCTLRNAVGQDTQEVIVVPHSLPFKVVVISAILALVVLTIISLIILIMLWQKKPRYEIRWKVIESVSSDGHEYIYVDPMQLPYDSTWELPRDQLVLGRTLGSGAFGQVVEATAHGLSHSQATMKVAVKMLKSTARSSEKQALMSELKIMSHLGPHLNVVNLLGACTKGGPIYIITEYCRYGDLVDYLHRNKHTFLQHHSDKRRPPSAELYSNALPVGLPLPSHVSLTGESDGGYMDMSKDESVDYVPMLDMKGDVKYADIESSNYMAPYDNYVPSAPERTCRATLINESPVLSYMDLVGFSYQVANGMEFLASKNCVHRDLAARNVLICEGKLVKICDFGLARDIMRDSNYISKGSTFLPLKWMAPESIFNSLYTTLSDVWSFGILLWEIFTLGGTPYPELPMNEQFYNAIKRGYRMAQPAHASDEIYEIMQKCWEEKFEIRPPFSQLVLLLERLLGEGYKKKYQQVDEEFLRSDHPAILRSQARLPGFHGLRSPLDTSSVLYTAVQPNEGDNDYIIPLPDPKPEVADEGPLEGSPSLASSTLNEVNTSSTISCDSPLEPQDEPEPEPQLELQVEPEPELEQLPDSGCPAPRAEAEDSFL

[4] = target: T1, Platelet-derived growth factor receptor beta; test: Inhibition of PDGFRbeta-mediated downstream signalling in human MNNG/HOS cells assessed as suppression of STAT3 phosphorylation at 0.1 to 0.4 uM measured after 48 hrs by western blot analysis; type: cell-based; conditions: dose 0.1-0.4 µM
[5] = target: T1, Platelet-derived growth factor receptor beta; test: Inhibition of PDGFRbeta-mediated downstream signalling in human MNNG/HOS cells assessed as suppression of AKT phosphorylation at 0.1 to 0.4 uM measured after 48 hrs by western blot analysis; type: cell-based; conditions: dose 0.1-0.4 µM
HOS-TE85 [6] = test: Inhibition of alpha tubulin expression in human MNNG/HOS cells at 0.1 to 0.4 uM measured after 48 hrs by western blot analysis; type: functional, cell-based; conditions: dose 0.1-0.4 µM
HOS-TE85 [7] = test: Antimigratory activity against human MNNG/HOS cells assessed as expression of FAK by measuring fluorescence at 0.1 to 0.4 uM upto 48 hrs by DAPI staining based immunofluorescence microscopic analysis; type: functional, cell-based; conditions: dose 0.1-0.4 µM
MG-63 [8] = test: Antimigratory activity against human MG-63 cells assessed as expression of FAK by measuring fluorescence at 0.1 to 0.4 uM upto 48 hrs by DAPI staining based immunofluorescence microscopic analysis; type: functional, cell-based; conditions: dose 0.1-0.4 µM
MG-63 [9] = test: Inhibition of alpha tubulin expression in human MG-63 cells at 0.1 to 0.4 uM measured after 48 hrs by western blot analysis; type: functional, cell-based; conditions: dose 0.1-0.4 µM
HOS-TE85 [10] = test: Antimigratory activity against human MNNG/HOS cells assessed as reduction in cell spreading area upto 48 hrs by DAPI staining based immunofluorescence microscopic analysis; type: functional; conditions: dose 0.1-0.4 µM, DDE = dose-dependent effect
MG-63 [11] = test: Inhibition of FAK expression in human MG-63 cells incubated for 48 hrs by Western blot analysis; type: functional, cell-based; conditions: dose 0.1-0.4 µM, DDE = dose-dependent effect
[12] = target: T1, Platelet-derived growth factor receptor beta; test: Binding affinity to PDGFRbeta (unknown origin)
[13] = target: T1, Platelet-derived growth factor receptor beta; test: Inhibition of PDGFRbeta phosphorylation in human MG-63 cells incubated for 48 hrs by Western blot analysis; type: cell-based
HOS-TE85 [14] = test: Induction of apoptosis in human MNNG/HOS cells xenografted in BALB/c nude mouse at 15 to 30 mg/kg/day, po dosed for 14 days by immunohistochemistry analysis; type: functional, organism-based; conditions: dose lower […], dose upper 30.0 mg/kg/day, time 14.0 day
HOS-TE85 [15] = test: In vivo inhibition of PDGFRbeta-mediated downstream signalling in human MNNG/HOS cells xenografted in BALB/c nude mouse assessed as phosphorylation of PDGFR in tumor tissue at 15 to 30 mg/kg/day, po for 14 days; type: functional, organism-based; conditions: dose lower […], dose upper 30.0 mg/kg/day, time 14.0 day
[16] = target: T1, Platelet-derived growth factor receptor beta; test: Inhibition of PDGFRbeta in PDGF AA/BB stimulated human MNNG/HOS cells assessed as reduction in fluorescence intensity measured after 48 hrs by DAPI staining based immunofluorescence analysis; type: cell-based; conditions: dose 0.1-0.4 µM, DDE = dose-dependent effect

CCN1CCN(c2ccc(Nc3ncc(C)c(Nc4ccc5cn[nH]c5c4)n3)cc2OC)CC1
active: Activity (HOS-TE85 [1]) Dde | Activity (MG-63 [2]) | inhibition [3] | inhibition [4] | inhibition [5] | inhibition (HOS-TE85 [6]) | Activity (HOS-TE85 [7]) | Activity (MG-63 [8]) | inhibition (MG-63 [9]) | Activity (HOS-TE85 [10]) Dde | inhibition (MG-63 [11]) Dde | Activity [12] | inhibition [13] | Activity (HOS-TE85 [14]) | inhibition (HOS-TE85 [15]) | inhibition [16] Dde
